Assay results reported in paper PMC9866191, “Novel 9-Benzylaminoacridine Derivatives as Dual Inhibitors of Phosphodiesterase 5 and Topoisomerase II for the Treatment of Colon Cancer” (Molecules, 2023).

Legend:
HCT-116 [1] = test: MTT cell proliferation assay, HCT-116; settings: for % Inhibition at 10 µM: 72 h MTT, means ± SD; for IC50: read-out: IC50 μM, 72 h MTT, means ± SD, three experiments
PDE5A = target: T1, PDE5A (Homo sapiens, UniProt O76074); test: Phosphodiesterase 5 HTRF cGMP assay; type: biochemical; settings: for IC50: means ± S.D. (n = 4), read-out: PDE5 IC50; for inhibition at 10 µM: read-out: PDE5 % Inhibition at 10 μM
T1 construct: purchased BPS Bioscience, San Diego, CA, USA
Experimental: All the synthesized acridine derivatives were tested for their in vitro ability to inhibit PDE5A at a screening dose of 10 µM.
The enzyme activities of phosphodiesterase 5 (PDE5) were measured using an HTRF cGMP assay kit (Cisbio, Codolet, France). […] Afterward, the HTRF reagent (cGMP-d2 and anti-cGMP-cryptate) was added for 1 h at 25 °C, and PDE activity was assayed on an HTRF reader (Tecan Infinite F200 Pro).

SF-268 = test: NCI-60 one-dose screen; type: cell-based; settings: Homo sapiens; SF-268, CNS Cancer panel; single dose 10^−5 M; read-out: Growth inhibition %
UO-31 = test: NCI-60 one-dose screen; type: cell-based; settings: Homo sapiens; UO-31, Renal Cancer panel; single dose 10^−5 M; read-out: Growth inhibition %
HOP-92 = test: NCI-60 one-dose screen; type: cell-based; settings: Homo sapiens; HOP-92, Non-small cell lung panel; single dose 10^−5 M; read-out: Growth inhibition %
CAKI-1 = test: NCI-60 one-dose screen; type: cell-based; settings: Homo sapiens; CAKI-1, Renal Cancer panel; single dose 10^−5 M; read-out: Growth inhibition %
NCI-H522 = test: NCI-60 one-dose screen; type: cell-based; settings: Homo sapiens; NCI-H522, Non-small cell lung panel; single dose 10^−5 M; read-out: Growth inhibition %
NCI-H23 = test: NCI-60 one-dose screen; type: cell-based; settings: Homo sapiens; NCI-H23, Non-small cell lung panel; single dose 10^−5 M; read-out: Growth inhibition %
ACHN = test: NCI-60 one-dose screen; type: cell-based; settings: Homo sapiens, Renal Cancer panel, single dose 10^−5 M, read-out: Growth inhibition %
SK-MEL-28 = test: NCI-60 one-dose screen; type: cell-based; settings: Homo sapiens; SK-MEL-28, Melanoma panel; single dose 10^−5 M; read-out: Growth inhibition %
MOLT-4 = test: NCI-60 one-dose screen; type: cell-based; settings: Homo sapiens; MOLT-4, Leukemia panel; single dose 10^−5 M; read-out: Growth inhibition %
OVCAR-4 = test: NCI-60 one-dose screen; type: cell-based; settings: Homo sapiens; OVCAR-4, Ovarian Cancer panel; single dose 10^−5 M; read-out: Growth inhibition %
MDA-MB-231/ATCC = test: NCI-60 one-dose screen; type: cell-based; settings: Homo sapiens, Breast Cancer panel, single dose 10^−5 M, read-out: Growth inhibition %
MDA-MB-435 = test: NCI-60 one-dose screen; type: cell-based; settings: Homo sapiens; MDA-MB-435, Melanoma panel; single dose 10^−5 M; read-out: Growth inhibition %
MDA-MB-468 = test: NCI-60 one-dose screen; type: cell-based; settings: Homo sapiens; MDA-MB-468, Breast Cancer panel; single dose 10^−5 M; read-out: Growth inhibition %
NCI-H322M = test: NCI-60 one-dose screen; type: cell-based; settings: Homo sapiens, Non-small cell lung panel, single dose 10^−5 M, read-out: Growth inhibition %
NCI-H460 = test: NCI-60 one-dose screen; type: cell-based; settings: Homo sapiens; NCI-H460, Non-small cell lung panel; single dose 10^−5 M; read-out: Growth inhibition %
SN12C = test: NCI-60 one-dose screen; type: cell-based; settings: Homo sapiens, Renal Cancer panel, single dose 10^−5 M, read-out: Growth inhibition %
HL-60(TB) = test: NCI-60 one-dose screen; type: cell-based; settings: Homo sapiens, Leukemia panel, single dose 10^−5 M, read-out: Growth inhibition %
HCT-116 [2] = test: NCI-60 one-dose screen; type: cell-based; settings: Homo sapiens, read-out: Growth inhibition %
NCI/ADR-RES = test: NCI-60 one-dose screen; type: cell-based; settings: Homo sapiens, Ovarian Cancer panel, single dose 10^−5 M, read-out: Growth inhibition %
786-0 = test: NCI-60 one-dose screen; type: cell-based; settings: Homo sapiens; 786-0, Renal Cancer panel; single dose 10^−5 M; read-out: Growth inhibition %
OVCAR-3 = test: NCI-60 one-dose screen; type: cell-based; settings: Homo sapiens; OVCAR-3, Ovarian Cancer panel; single dose 10^−5 M; read-out: Growth inhibition %
HOP-62 = test: NCI-60 one-dose screen; type: cell-based; settings: Homo sapiens; HOP-62, Non-small cell lung panel; single dose 10^−5 M; read-out: Growth inhibition %
MCF7 = test: NCI-60 one-dose screen; type: cell-based; settings: Homo sapiens; MCF7, Breast Cancer panel; single dose 10^−5 M; read-out: Growth inhibition %
SNB-75 = test: NCI-60 one-dose screen; type: cell-based; settings: Homo sapiens; SNB-75, CNS Cancer panel; single dose 10^−5 M; read-out: Growth inhibition %
HS 578T = test: NCI-60 one-dose screen; type: cell-based; settings: Homo sapiens, Breast Cancer panel, single dose 10^−5 M, read-out: Growth inhibition %
A549/ATCC = test: NCI-60 one-dose screen; type: cell-based; settings: Homo sapiens, Non-small cell lung panel, single dose 10^−5 M, read-out: Growth inhibition %
IGROV1 = test: NCI-60 one-dose screen; type: cell-based; settings: Homo sapiens, IGROV-1; IGROV1, Ovarian Cancer panel; single dose 10^−5 M; read-out: Growth inhibition %
[3] = test system: panel of 60 human tumor cell lines; test: NCI 60-cell line one-dose screen (mean); type: cell-based; settings: mean of the 60 cell lines, single dose 10^−5 M, read-out: Mean % Growth Inhibition
Summary of the method: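 Primary NCI screen: one concentration (10^−5 M) applied to all 60 human cancer cell lines from 9 tissue types; growth inhibition reported as a percentage.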

| Compound | IC50 (PDE5A) [µM] | inhibition at 10 µM (PDE5A) [%] | inhibition at 10 µM (SF-268) [%] | inhibition at 10 µM (UO-31) [%] | inhibition at 10 µM (HOP-92) [%] | inhibition at 10 µM (CAKI-1) [%] | inhibition at 10 µM (NCI-H522) [%] | inhibition at 10 µM (NCI-H23) [%] | inhibition at 10 µM (ACHN) [%] | inhibition at 10 µM (SK-MEL-28) [%] | inhibition at 10 µM (MOLT-4) [%] | inhibition at 10 µM (OVCAR-4) [%] | inhibition at 10 µM (MDA-MB-231/ATCC) [%] | inhibition at 10 µM (MDA-MB-435) [%] | inhibition at 10 µM (MDA-MB-468) [%] | inhibition at 10 µM (NCI-H322M) [%] | inhibition at 10 µM (NCI-H460) [%] | inhibition at 10 µM (SN12C) [%] | inhibition at 10 µM (HL-60(TB)) [%] | inhibition at 10 µM (HCT-116 [2]) [%] | other results |
| --- | --- | --- | --- | --- | --- | --- | --- | --- | --- | --- | --- | --- | --- | --- | --- | --- | --- | --- | --- | --- | --- |
| c1ccc(CNc2c3ccccc3nc3ccccc23)cc1 [Compound 1, Acridin-9-yl-benzyl-amine] | 9.33 ± 4.62 | 52.2 ± 5.87 | 37.4 | 76.2 | 74.1 | 66.9 | 43.2 | 58.8 | 81.9 | 14.5 | 84.5 | 56.8 | 42.1 | 57.2 | 80.7 | 53.7 | 89.7 | 62.5 | 56.2 | 91.6 | % Inhibition at 10 µM (HCT-116 [1]): 67.16 ± 2.40%; IC50 (HCT-116 [1]): 2.81 ± 0.2 µM; inhibition at 10 µM (NCI/ADR-RES): 62.4%; inhibition at 10 µM (786-0): 65.7%; inhibition at 10 µM (OVCAR-3): 48.3%; inhibition at 10 µM (HOP-62): 54%; inhibition at 10 µM (MCF7): 88%; inhibition at 10 µM (SNB-75): 35.6%; inhibition at 10 µM (HS 578T): 43.9%; inhibition at 10 µM (A549/ATCC): 71.5%; inhibition at 10 µM (IGROV1): 70.2%; inhibition at 10 µM [3]: 62.7% |
| Cc1ccccc1CNc1c2ccccc2nc2ccccc12 [Compound 2, Acridin-9-yl-(2-methylbenzyl)-amine] | 9.87 ± 2.06 | 50.4 ± 3.68 | 57.1 | 84.5 | 101 | 74.9 | 50 | 76.6 | 88.4 | 41.7 | 91.2 | 67.1 | 60.1 | 76.1 | 94.2 | 71 | 93.1 | 75.7 | 84.7 | 92.1 | % Inhibition at 10 µM (HCT-116 [1]): 66.96 ± 0.14%; IC50 (HCT-116 [1]): 4.01 ± 0.17 µM; inhibition at 10 µM (NCI/ADR-RES): 75.2%; inhibition at 10 µM (786-0): 75.7%; inhibition at 10 µM (OVCAR-3): 68.7%; inhibition at 10 µM (HOP-62): 71.9%; inhibition at 10 µM (MCF7): 93.1%; inhibition at 10 µM (SNB-75): 54.7%; inhibition at 10 µM (HS 578T): 64.3%; inhibition at 10 µM (A549/ATCC): 80.3%; inhibition at 10 µM (IGROV1): 85.2%; inhibition at 10 µM [3]: 77.7% |
| Cc1cccc(CNc2c3ccccc3nc3ccccc23)c1 [Compound 3, Acridin-9-yl-(3-methylbenzyl)-amine] | 6.4 ± 1.89 | 59.3 ± 6.18 | 48 | 85.3 | 93 | 82.3 | 47.9 | 70.3 | 84.2 | 41.2 | 97.7 | 72.1 | 61.3 | 70.9 | 100 | 59.7 | 91.3 | 73.9 | 87.5 | 90.2 | % Inhibition at 10 µM (HCT-116 [1]): 66.71 ± 2.10%; IC50 (HCT-116 [1]): 4.6 ± 0.07 µM; inhibition at 10 µM (NCI/ADR-RES): 74.3%; inhibition at 10 µM (786-0): 75.8%; inhibition at 10 µM (OVCAR-3): 69.2%; inhibition at 10 µM (HOP-62): 59.6%; inhibition at 10 µM (MCF7): 93.8%; inhibition at 10 µM (SNB-75): 63%; inhibition at 10 µM (HS 578T): 69.7%; inhibition at 10 µM (A549/ATCC): 77.4%; inhibition at 10 µM (IGROV1): 80.5%; inhibition at 10 µM [3]: 77.2% |
| COc1ccc(CNc2c3ccccc3nc3ccccc23)c(OC)c1 [Compound 17, Acridin-9-yl-(2,4-dimethoxybenzyl)-amine] | 6.77 ± 1.31 | 60.2 ± 5.89 | 34.3 | 72 | 114 | 63.8 | 59.4 | 65.1 | 74.2 | 30.7 | 81.5 | 60.3 | 56.4 | 61.3 | 95.2 | 60 | 83.3 | 69 | 63.1 | 87.2 | inhibition at 10 µM (NCI/ADR-RES): 64.4%; inhibition at 10 µM (786-0): 60.9%; inhibition at 10 µM (OVCAR-3): 30.8%; inhibition at 10 µM (HOP-62): 52.8%; inhibition at 10 µM (MCF7): 85.5%; inhibition at 10 µM (SNB-75): 35.5%; inhibition at 10 µM (HS 578T): 31.1%; inhibition at 10 µM (A549/ATCC): 64.8%; inhibition at 10 µM (IGROV1): 77.5%; inhibition at 10 µM [3]: 60.8% |
| COc1ccc(CNc2c3ccccc3nc3ccccc23)cc1OC [Compound 18, Acridin-9-yl-(3,4-dimethoxybenzyl)-amine] | 9.77 ± 3.11 | 51.2 ± 5.26 | 60.4 | 87.9 | 110 | 89.5 | 81.8 | 84.9 | 95.9 | 64.8 | 89.4 | 78.6 | 80.6 | 70.6 | 123 | 70.2 | 93.8 | 77.5 | 87.3 | 87.8 | inhibition at 10 µM (NCI/ADR-RES): 80.7%; inhibition at 10 µM (786-0): 74.6%; inhibition at 10 µM (OVCAR-3): 56.3%; inhibition at 10 µM (HOP-62): 65.5%; inhibition at 10 µM (MCF7): 99.3%; inhibition at 10 µM (SNB-75): 75.2%; inhibition at 10 µM (HS 578T): 62.8%; inhibition at 10 µM (A549/ATCC): 83.7%; inhibition at 10 µM (IGROV1): 89.1%; inhibition at 10 µM [3]: 81.6% |
